One series relates to rat adipocytes. Kind of series: In vitro lipolysis assay (antilipolytic activity in rat adipocytes). To be noted: Rattus norvegicus, Adipocyte, 1 h; norepinephrine-stimulated lipolysis, glycerol assayed, 60 min; read-out: Lipo ec50. The series is classed as cell-based. The procedure:
Determination of Antilipolytic Activity in Rat Adipocytes
Isolation of Adipocytes from Epididymal Fat Pads
Adipose tissue is removed from anesthetized rats and rinsed twice in incubation medium (2.09 g sodium bicarbonate and 0.04 g EDTA, disodium salt, in 1 L Krebs buffer). Each rat (300-350 g) yields approximately 4 mL of adipose tissue. The adipose tissue (35 mL) is cut into small pieces with scissors and washed with incubation medium (50 mL). The mixture is poured into the barrel of a 50 mL syringe to which is attached a short piece of clamped tubing instead of a needle. The aqueous phase is allowed to drain. A second wash with incubation medium is passed through the syringe. The tissue is added to 50 mL of collagenase solution (collagenase (90 mg), bovine serum albumin (BSA) (500 mg), and 0.1 M calcium chloride solution (1 mL), in incubation medium (50 mL)) in a 1 L bottle. The mixture is shaken in an environmental at 37° C. for about 60 minutes under an atmosphere of 95% oxygen/5% carbon dioxide to effect digestion of the tissue. The dispersed cells are poured through 2 layers of cheese cloth into a 100 mL plastic beaker. The undigested clumps in the cloth are rinsed once with incubation medium (20 mL). The cells in the beaker are centrifuged in 2 plastic tubes for 30 seconds at room temperature at 300 rpm. The aqueous phase is aspirated from beneath the loosely packed layer of floating fat cells and discarded. The adipocytes are gently poured into a 250 mL plastic beaker containing 100 mL of rinse solution (1 g BSA per 100 mL incubation medium). After gentle stirring the centrifugation step is repeated. Another wash with rinse solution follows. The cells are pooled and their volume is estimated with a graduated cylinder. The adipocytes are diluted in twice their volume of assay buffer (incubation medium (120 mL), BSA (1.2 g), pyruvic acid (13 mg)).
The assay is performed in 20 mL plastic scintillation vials and the total assay volume is 4.2 mL. Assay buffer (2.5 mL), diluted adipocytes (1.5 mL), and a solution of the compound to be tested (12.3 μL) adenosine agonist (12.3 μl; varying concentration) is incubated in the environmental shaker for 15 minutes, then the reaction is started with norepinephrine solution (41.2 μL) (10 nM, in a carrier solution containing water (100 mL), BSA (4 mg), and 0.1 M EDTA (20 μL))and adenosine deaminase (1 μg/mL, 41.2 μl). After sixty minutes in the shaker the reaction is terminated by putting the vials on ice. […] The hard lipid layer is removed by aspiration and the aqueous layer is assayed for glycerol (400 μl of sample). The positive control is done in the absence of any adenosine agonist, substituting water in place of the solution to be tested.

SMILES strings stand for the structures.

A word on the EC50: it is the concentration giving half of the maximal effect. As usually defined, the melting point is the temperature, or range, at which the solid turns liquid. Turning to `OC[C@H]1O[C@@H](n2cnc3c(NC4CCN(c5ccc(Cl)nn5)C4)ncnc32)[C@H](O)[C@@H]1O` (stereo partly drawn) [Example 22, (2R,3R,4S,5R)-5-hydroxymethyl-2-[6-[1-(6-chloropyridazin-3-yl)pyrrolidin-3-ylamino]-purin-9-yl]-tetrahydrofuran-3,4-diol], the melting point is 130 °C (dec.). In addition, the EC50 with rat adipocytes came out at 3.07 nM.
The matching figures for `COC[C@H]1C[C@@H](n2cnc3c(N[C@H]4CCN(c5ccc(C(F)(F)F)cc5)C4)ncnc32)[C@H](O)[C@@H]1O` [Example 54, (1R,2S,3R,5R)-5-methoxymethyl-3-[6-[1-(4-trifluoromethylphenyl)pyrrolidin-3(S)-ylamino]-purin-9-yl]cyclopentane-1,2-diol]: 128 °C and 27.8 nM.
In the case of `Cl.Cl.OC[C@H]1C[C@@H](n2cnc3c(N[C@H]4CCNC4)ncnc32)[C@H](O)[C@@H]1O` [Example 26, (1R,2S,3R,5R)-5-hydroxymethyl-3-[6-((3S)-pyrrolidin-3-ylamino)-purin-9-yl]cyclopentane-1,2-diol dihydrochloride], the melting point is 160 °C (dec.). Also, the 50% effective concentration (EC50) with rat adipocytes stood at 178 nM.
In turn, `N#Cc1ccc(N2CC[C@H](Nc3ncnc4c3ncn4[C@@H]3C[C@H](CO)[C@@H](O)[C@H]3O)C2)cc1` [Example 40, 4-[3(S)-[9-((1R,2S,3R,5R)-1,2-dihydroxy-5-hydroxymethylcyclopent-3-yl)-9H-purin-6-ylamino]pyrrolidin-1-yl]benzonitrile] had a melting point of 140 °C. For the same molecule, in the series with rat adipocytes, the EC50 is 10.5 nM.
The matching figures for `C[C@H]1C[C@@H](n2cnc3c(N[C@H]4CCN(c5ccc(C(F)(F)F)cn5)C4)ncnc32)[C@H](O)[C@@H]1O` [Example 31, (1R,2S,3R,5S)-5-methyl-3-[6-[1-(5-trifluoromethylpyridin-2-yl)pyrrolidin-3(S)-ylamino]-purin-9-yl]cyclopentane-1,2-diol]: 114 to 116 °C and 247 nM.
Consider `OC[C@H]1C[C@@H](n2cnc3c(N[C@H]4CCN(c5nccc6ccccc56)C4)ncnc32)[C@H](O)[C@@H]1O` [Example 41, (1R,2S,3R,5R)-5-hydroxymethyl-3-[6-[1-(isoquinolin-1-yl)pyrrolidin-3(S)-ylamino]-purin-9-yl]cyclopentane-1,2-diol], for which the melting point is 119 to 122 °C. Besides, the EC50 in the series with rat adipocytes is 182 nM.
Consider `OC[C@H]1C[C@@H](n2cnc3c(N[C@H]4CCN(c5ccc(C(F)(F)F)cc5)C4)ncnc32)[C@H](O)[C@@H]1O` [Example 5, (1R,2S,3R,5R)-3-[6-[1-(4-trifluoromethylphenyl)-pyrrolidin-3(S)-ylamino]-purin-9-yl]-5-hydroxymethylcyclopentane-1,2-diol], for which the melting point fell in the range of 111 to 114 °C. In the series with rat adipocytes, the EC50 is 2 nM.
Regarding `COC[C@H]1C[C@@H](n2cnc3c(N[C@H]4CCN(c5ccc(Cl)cc5)C4)ncnc32)[C@H](O)[C@@H]1O` [Example 55, (1R,2S,3R,5R)-3-[6-[1-(4-chlorophenyl)-pyrrolidin-3(S)-ylamino]-purin-9-yl]-5-methoxymethylcyclopentane-1,2-diol], the melting point fell in the range of 122 to 125 °C. In addition, the EC50 with rat adipocytes worked out at 3.3 nM.
The matching figures for `COC[C@H]1C[C@@H](n2cnc3c(N[C@H]4CCN(c5ncc(C(F)(F)F)cc5Cl)C4)ncnc32)[C@H](O)[C@@H]1O` [Example 44, (1R,2S,3R,5R)-3-[6-[1-(3-chloro-5-trifluoromethylpyridin-2-yl)pyrrolidin-3(S)-ylamino]-purin-9-yl]-5-methoxymethylcyclopentane-1,2-diol]: 140 to 143 °C and 226 nM.
With `CC[C@H](C)NC(=O)[C@H]1C[C@@H](n2cnc3c(N[C@H]4CCN(c5ccc(C(F)(F)F)cn5)C4)ncnc32)[C@H](O)[C@@H]1O` [Example 61, (1S,2R,3S,4R)-2,3-dihydroxy-4-{6-[1-(5-trifluoromethyl-pyridin-2-yl)-pyrrolidin-3(S)-ylamino]-purin-9-yl}-cyclopentanecarboxylic acid-1(S)-methylpropylamide], the melting point is 215 °C (dec.). In addition, in the series with rat adipocytes, the EC50 was found to be 18 nM.
The matching figures for `OC[C@H]1C[C@@H](n2cnc3c(N[C@H]4CCN(c5ccccn5)C4)ncnc32)[C@H](O)[C@@H]1O` [Example 35, (1R,2S,3R,5R)-5-hydroxymethyl-3-[6-[1-(pyridin-2-yl)pyrrolidin-3(S)-ylamino]-purin-9-yl]cyclopentane-1,2-diol]: 110 to 112 °C and 48 nM.

The values are drawn from patent US20030176390A1, “Methods of treating insulin resistance syndrome and diabetes” (priority 2001, published 2003).
